From patent publication US20200270309A1, “MALEIMIDE GROUP-MODIFIED ANGIOGENESIS INHIBITOR HM-1 AND USE THEREOF” (NANJING ANJI BIOLOGICAL TECHNOLOGY CO., LTD, priority 2017, published 2020)
Peptide text beside a SMILES is read from it. * marks the point of attachment. X28 = O=C1C=CC(=O)N1CCOCCOCCOCCCCCCC(=O)*; X34 = O=C1C=CC(=O)N1CCOCCOCCOCCCCCC(=O)*; X17 = O=C1C=CC(=O)N1CCOCCOCCCCCCCC(=O)*; X33 = O=C1C=CC(=O)N1CCOCCOCCOCCCCC(=O)*; X16 = O=C1C=CC(=O)N1CCOCCOCCCCCCC(=O)*; X70 = O=C1C=CC(=O)N1CCOCCOCCOCCCC(=O)*; X15 = O=C1C=CC(=O)N1CCOCCOCCOCCC(=O)*; X2 = O=C1C=CC(=O)N1CCOCCOCCCCCC(=O)*; X31 = O=C1C=CC(=O)N1CCOCCOCCOCC(=O)*; X3 = O=C1C=CC(=O)N1CCOCCOCCCCC(=O)*

Assay: Half-lives and pharmacokinetic parameters of polypeptides vs HM-1
Settings: in vivo; for half-life: T1/2β (half-life)

| SMILES | AUC(0-inf) | MRT inf | clearance | half-life |
| --- | --- | --- | --- | --- |
| C[C@H](NC(=O)CNC(=O)[C@H](CCCNC(=N)N)NC(=O)CCCCOCCOCCN1C(=O)C=CC1=O)C(=O)N[C@@H](CC(=O)O)C(=O)N[C@@H](CCCNC(=N)N)C(=O)N[C@@H](C)C(=O)NCC(=O)NCC(=O)NCC(=O)NCC(=O)N[C@@H](CCCNC(=N)N)C(=O)NCC(=O)N[C@@H](CC(=O)O)C(=O)O [X59] (X3-RGADRAGGGGRGD-OH) | 30300 ± 7110 ng·h/mL | 54.2 ± 9.93 h | 0.553 mL/min/kg | 37.55 ± 0.27 h |
| C[C@H](NC(=O)CNC(=O)[C@H](CCCNC(=N)N)NC(=O)CCCCCOCCOCCN1C(=O)C=CC1=O)C(=O)N[C@@H](CC(=O)O)C(=O)N[C@@H](CCCNC(=N)N)C(=O)N[C@@H](C)C(=O)NCC(=O)NCC(=O)NCC(=O)NCC(=O)N[C@@H](CCCNC(=N)N)C(=O)NCC(=O)N[C@@H](CC(=O)O)C(=O)O [X60] (X2-RGADRAGGGGRGD-OH) | 30200 ± 7290 ng·h/mL | 54.1 ± 11.7 h | 0.552 mL/min/kg | 37.51 ± 0.25 h |
| C[C@H](NC(=O)CNC(=O)[C@H](CCCNC(=N)N)NC(=O)CCCCCCOCCOCCN1C(=O)C=CC1=O)C(=O)N[C@@H](CC(=O)O)C(=O)N[C@@H](CCCNC(=N)N)C(=O)N[C@@H](C)C(=O)NCC(=O)NCC(=O)NCC(=O)NCC(=O)N[C@@H](CCCNC(=N)N)C(=O)NCC(=O)N[C@@H](CC(=O)O)C(=O)O [X61] (X16-RGADRAGGGGRGD-OH) | 25600 ± 7550 ng·h/mL | 45.7 ± 13.6 h | 0.652 mL/min/kg | 31.69 ± 0.28 h |
| C[C@H](NC(=O)CNC(=O)[C@H](CCCNC(=N)N)NC(=O)CCCCCCCOCCOCCN1C(=O)C=CC1=O)C(=O)N[C@@H](CC(=O)O)C(=O)N[C@@H](CCCNC(=N)N)C(=O)N[C@@H](C)C(=O)NCC(=O)NCC(=O)NCC(=O)NCC(=O)N[C@@H](CCCNC(=N)N)C(=O)NCC(=O)N[C@@H](CC(=O)O)C(=O)O [X62] (X17-RGADRAGGGGRGD-OH) | 26700 ± 8160 ng·h/mL | 47.8 ± 12.3 h | 0.625 mL/min/kg | 33.09 ± 0.28 h |
| C[C@H](NC(=O)CNC(=O)[C@H](CCCNC(=N)N)NC(=O)COCCOCCOCCN1C(=O)C=CC1=O)C(=O)N[C@@H](CC(=O)O)C(=O)N[C@@H](CCCNC(=N)N)C(=O)N[C@@H](C)C(=O)NCC(=O)NCC(=O)NCC(=O)NCC(=O)N[C@@H](CCCNC(=N)N)C(=O)NCC(=O)N[C@@H](CC(=O)O)C(=O)O [X63] (X31-RGADRAGGGGRGD-OH) | 32300 ± 7650 ng·h/mL | 57.7 ± 13.3 h | 0.517 mL/min/kg | 39.97 ± 0.31 h |
| C[C@H](NC(=O)CNC(=O)[C@H](CCCNC(=N)N)NC(=O)CCOCCOCCOCCN1C(=O)C=CC1=O)C(=O)N[C@@H](CC(=O)O)C(=O)N[C@@H](CCCNC(=N)N)C(=O)N[C@@H](C)C(=O)NCC(=O)NCC(=O)NCC(=O)NCC(=O)N[C@@H](CCCNC(=N)N)C(=O)NCC(=O)N[C@@H](CC(=O)O)C(=O)O [X64] (X15-RGADRAGGGGRGD-OH) | 32300 ± 7250 ng·h/mL | 57.7 ± 13 h | 0.517 mL/min/kg | 39.97 ± 0.28 h |

Other lines, results leading:

| AUC(0-inf) | MRT inf | clearance | half-life | SMILES |
| --- | --- | --- | --- | --- |
| 31800 ± 7280 ng·h/mL | 57.1 ± 12.2 h | 0.523 mL/min/kg | 39.53 ± 0.31 h | C[C@H](NC(=O)CNC(=O)[C@H](CCCNC(=N)N)NC(=O)CCCOCCOCCOCCN1C(=O)C=CC1=O)C(=O)N[C@@H](CC(=O)O)C(=O)N[C@@H](CCCNC(=N)N)C(=O)N[C@@H](C)C(=O)NCC(=O)NCC(=O)NCC(=O)NCC(=O)N[C@@H](CCCNC(=N)N)C(=O)NCC(=O)N[C@@H](CC(=O)O)C(=O)O [X65] (X70-RGADRAGGGGRGD-OH) |
| 27700 ± 7510 ng·h/mL | 49.6 ± 9.77 h | 0.602 mL/min/kg | 34.38 ± 0.25 h | C[C@H](NC(=O)CNC(=O)[C@H](CCCNC(=N)N)NC(=O)CCCCOCCOCCOCCN1C(=O)C=CC1=O)C(=O)N[C@@H](CC(=O)O)C(=O)N[C@@H](CCCNC(=N)N)C(=O)N[C@@H](C)C(=O)NCC(=O)NCC(=O)NCC(=O)NCC(=O)N[C@@H](CCCNC(=N)N)C(=O)NCC(=O)N[C@@H](CC(=O)O)C(=O)O [X66] (X33-RGADRAGGGGRGD-OH) |
| 31600 ± 8030 ng·h/mL | 56.4 ± 11.6 h | 0.528 mL/min/kg | 39.09 ± 0.28 h | C[C@H](NC(=O)CNC(=O)[C@H](CCCNC(=N)N)NC(=O)CCCCCOCCOCCOCCN1C(=O)C=CC1=O)C(=O)N[C@@H](CC(=O)O)C(=O)N[C@@H](CCCNC(=N)N)C(=O)N[C@@H](C)C(=O)NCC(=O)NCC(=O)NCC(=O)NCC(=O)N[C@@H](CCCNC(=N)N)C(=O)NCC(=O)N[C@@H](CC(=O)O)C(=O)O [X67] (X34-RGADRAGGGGRGD-OH) |
| 31800 ± 7920 ng·h/mL | 57 ± 10.3 h | 0.523 mL/min/kg | 39.52 ± 0.34 h | C[C@H](NC(=O)CNC(=O)[C@H](CCCNC(=N)N)NC(=O)CCCCCCOCCOCCOCCN1C(=O)C=CC1=O)C(=O)N[C@@H](CC(=O)O)C(=O)N[C@@H](CCCNC(=N)N)C(=O)N[C@@H](C)C(=O)NCC(=O)NCC(=O)NCC(=O)NCC(=O)N[C@@H](CCCNC(=N)N)C(=O)NCC(=O)N[C@@H](CC(=O)O)C(=O)O [X68] (X28-RGADRAGGGGRGD-OH) |
